# Source: patent EP0745595A1, “3-(3-Aryloxyphenyl)-1-(substituted methyl)-s-triazine-2,4,6-oxo or thiotrione herbicidal agents” (American Cyanamid Company, priority 1995, dated 1996)
# Experiments:
# Assay type in all cases: in vivo
# [1] = system: AMBROSIA ARTEMISIIFOLIA, L.; test: Postemergence herbicidal evaluation, AMBEL (Ragweed, Common)
# How it was run: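 Postemergence herbicidal activity on AMBEL (common ragweed) was assessed on two-week-old seedlings grown in jiffy flats. Treatment solutions of 50/50 acetone/water with 0.5% TWEEN®20 surfactant were sprayed at 40 psi. After four to five weeks in the greenhouse, plants were scored 0-9 against a control for stand, vigor, malformation, size, chlorosis and overall appearance, with multiple tests averaged.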
# [2] = system: TRITICUM AESTIVUM, CV. APOLLO; test: Postemergence herbicidal evaluation, TRZAWO (Wheat, Winter, CV. APOLLO)
# How it was run: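 This greenhouse postemergence test applied compounds to roughly two-week-old wheat seedlings grown in jiffy flats. The spray solution was 50/50 acetone/water with 0.5% TWEEN®20, a polyoxyethylene sorbitan monolaurate, sprayed from a nozzle run at 40 psi. After four to five weeks of standard greenhouse care, injury was scored from 0 to 9 by comparing stand, vigor, malformation, size, chlorosis and overall appearance with a control. Multiple tests were averaged.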
# [3] = system: ECHINOCHLOA CRUS-GALLI, (L) BEAU; test: Postemergence herbicidal evaluation, ECHCG (Barnyardgrass); set-up: key to ECHCG rating / Herbicidal effect rating, ECHCG / ECHCG: 0-9 visual rating scale vs untreated control
# How it was run: (§1)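 Application to seedlings around two weeks old: test compound in 50/50 acetone/water, 0.5% TWEEN 20, sprayed at 40 psi for roughly 0.125–0.500 kg/ha. Evaluation: 0–9 visual scale after 4–5 weeks, replicates averaged.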
# [4] = system: SETARIA VIRIDIS, (L) BEAU; test: Postemergence herbicidal evaluation, SETVI (Foxtail, Green); set-up: key to SETVI rating / Herbicidal effect rating, SETVI / SETVI: 0-9 visual rating scale vs untreated control
# How it was run: as §1
# CHENOPODIUM ALBUM, L. [5] = test: Postemergence herbicidal evaluation, CHEAL (Lambsquarters, Common)
# How it was run: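 Postemergence herbicidal activity on Chenopodium album was tested by spraying two-week-old seedlings grown in jiffy flats with compound in acetone/water (50/50) plus 0.5% TWEEN®20, using a 40 psi nozzle. Four to five weeks after treatment, stand, vigor, malformation, size, chlorosis and overall appearance were scored 0-9 relative to controls, with repeat tests averaged.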
# CHENOPODIUM ALBUM, L. [6] = test: Preemergence herbicidal evaluation, CHEAL (Lambsquarters, Common); details: four to five weeks after treatment
# How it was run: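 Rated 0-9 by visual comparison with control (stand, vigor, malformation, size, chlorosis, overall appearance) four to five weeks after preemergence soil spray. Dose equivalent to about 0.125 to 0.50 kg per hectare, applied in aqueous acetone to freshly seeded cups kept in greenhouse.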
# ZEA MAYS L. = test: Postemergence herbicidal evaluation, ZEAMX (Corn, Field)
# How it was run: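 This greenhouse postemergence test treated corn plants about two weeks old. Compounds in a 50/50 acetone/water mixture with 0.5% TWEEN®20 were applied through a spray nozzle at 40 psi. After four to five weeks, injury was scored 0-9 against an untreated control, judging stand, vigor, malformation, size, chlorosis and overall appearance. Repeated tests were averaged.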
# GALIUM APARINE = test: Postemergence herbicidal evaluation, GALAP (Galium); set-up: key to GALAP rating / Herbicidal effect rating, GALAP / GALAP: 0-9 visual rating scale vs untreated control
# How it was run: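 In this postemergence greenhouse test, two-week-old Galium aparine seedlings grown in jiffy flats received a 40 psi spray of compound in acetone/water (50/50) with 0.5% TWEEN®20 surfactant. After four to five weeks, stand, vigor, malformation, size, chlorosis and overall appearance were compared with untreated controls on a 0-9 scale, averaging multiple tests.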
# IPOMOEA SPP. = test: Postemergence herbicidal evaluation, IPOSS (Morningglory spp.)
# How it was run: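 In this greenhouse postemergence herbicide test on Ipomoea spp. (morningglory), compounds in 50/50 acetone/water with 0.5% TWEEN®20 were sprayed at 40 psi onto seedlings about two weeks old grown in jiffy flats. After four to five weeks, injury was scored on a 0-9 scale covering stand, vigor, malformation, size, chlorosis and overall appearance versus control, with repeat tests averaged.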
# [7] = system: ORYZA SATIVA, L. TEBONNET; test: Rice tolerance to post-transplant applications under flooded paddy conditions, ORYSAT (Rice, Tebonnet); details: for ORYSAT herbicidal rating (rice tolerance): post-transplant rice, rated three to four weeks after treatment; for ORYSAT: post-transplanted rice;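 as to ORYSAT herbicidal rating (rice tolerance): applied to flooded soil surface three days after transplanting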
# How it was run: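 Rated on a visual 0–9 scale against untreated plants 3–4 weeks after application, rice (cv. Tebonnet) tolerance was tested by applying compounds (approx. 0.5–0.063 kg/ha, acetone/water 50/50) to flooded soil three days post-transplant, water kept 1.5–3 cm deep.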
# [8] = system: ABUTILON THEOPHRASTI, MEDIC.; test: Postemergence herbicidal evaluation, ABUTH (Velvetleaf)
# How it was run: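 This postemergence herbicide test used two-week-old velvetleaf seedlings grown in jiffy flats. Each compound was sprayed at 40 psi as a dispersion in 50/50 acetone/water with 0.5% TWEEN®20 surfactant. Plants then received routine greenhouse care. After four to five weeks, injury was scored visually on a 0-9 scale against a control, and replicate tests were averaged.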
smiles,measurement,setting,value
"COC(=O)Cn1c(=O)n(C)c(=O)n(-c2cc(Oc3ccc(C(F)(F)F)cc3Cl)ccc2[N+](=O)[O-])c1=O [Compound 3, Methyl 3-{5-[(2-chloro-α,α,α-trifluoro-p-tolyl)oxy]-2-nitrophenyl}tetrahydro-5-methyl-2,4,6-trioxo-s-triazine-1(2H)-acetate]","Herbicidal effect rating, AMBEL",[1]; 0.031 kg/ha,8.3
same,"Herbicidal effect rating, AMBEL",[1]; 0.063 kg/ha,8.6
same,"Herbicidal effect rating, AMBEL",[1]; 0.125 kg/ha,8.8
same,"Herbicidal effect rating, AMBEL",[1]; 0.250 kg/ha,9.0
same,"Herbicidal effect rating, TRZAWO",[2]; 0.031 kg/ha,6.1
same,"Herbicidal effect rating, TRZAWO",[2]; 0.063 kg/ha,6.8
same,"Herbicidal effect rating, TRZAWO",[2]; 0.125 kg/ha,7.1
same,"Herbicidal effect rating, TRZAWO",[2]; 0.250 kg/ha,7.6
same,"Herbicidal effect rating, ECHCG",[3]; 0.031 kg/ha,4.3
same,"Herbicidal effect rating, ECHCG",[3]; 0.063 kg/ha,5.1
same,"Herbicidal effect rating, ECHCG",[3]; 0.125 kg/ha,6.7
same,"Herbicidal effect rating, ECHCG",[3]; 0.250 kg/ha,7.9
same,"Herbicidal effect rating, SETVI",[4]; 0.031 kg/ha,3.9
same,"Herbicidal effect rating, SETVI",[4]; 0.063 kg/ha,5.1
same,"Herbicidal effect rating, SETVI",[4]; 0.125 kg/ha,6.8
same,"Herbicidal effect rating, SETVI",[4]; 0.250 kg/ha,7.9
same,"Herbicidal effect rating, CHEAL","CHENOPODIUM ALBUM, L. [5]; 0.031 kg/ha",5.1
same,"Herbicidal effect rating, CHEAL","CHENOPODIUM ALBUM, L. [5]; 0.063 kg/ha",6.0
same,"Herbicidal effect rating, CHEAL","CHENOPODIUM ALBUM, L. [5]; 0.125 kg/ha",7.2
same,"Herbicidal effect rating, CHEAL","CHENOPODIUM ALBUM, L. [5]; 0.250 kg/ha",7.4
same,CHEAL rating,"CHENOPODIUM ALBUM, L. [6]; Rate 0.125 kg/ha",9.0
same,CHEAL rating,"CHENOPODIUM ALBUM, L. [6]; Rate 0.250 kg/ha",9.0
same,CHEAL rating,"CHENOPODIUM ALBUM, L. [6]; Rate 0.500 kg/ha",9.0
same,"Herbicidal effect rating, ZEAMX",ZEA MAYS L.; 0.031 kg/ha,4.6
same,"Herbicidal effect rating, ZEAMX",ZEA MAYS L.; 0.063 kg/ha,4.8
same,"Herbicidal effect rating, ZEAMX",ZEA MAYS L.; 0.125 kg/ha,5.8
same,"Herbicidal effect rating, ZEAMX",ZEA MAYS L.; 0.250 kg/ha,6.9
same,"Herbicidal effect rating, GALAP",GALIUM APARINE; 0.031 kg/ha,8.2
same,"Herbicidal effect rating, GALAP",GALIUM APARINE; 0.063 kg/ha,8.3
same,"Herbicidal effect rating, GALAP",GALIUM APARINE; 0.125 kg/ha,8.7
same,"Herbicidal effect rating, GALAP",GALIUM APARINE; 0.250 kg/ha,8.4
same,"Herbicidal effect rating, IPOSS",IPOMOEA SPP.; 0.031 kg/ha,7.6
same,"Herbicidal effect rating, IPOSS",IPOMOEA SPP.; 0.063 kg/ha,8.3
same,"Herbicidal effect rating, IPOSS",IPOMOEA SPP.; 0.125 kg/ha,8.9
same,"Herbicidal effect rating, IPOSS",IPOMOEA SPP.; 0.250 kg/ha,8.9
same,ORYSAT herbicidal rating (rice tolerance),[7]; Rate 0.063 kg/ha,2.7
same,ORYSAT herbicidal rating (rice tolerance),[7]; Rate 0.125 kg/ha,3.0
same,ORYSAT herbicidal rating (rice tolerance),[7]; Rate 0.250 kg/ha,3.8
same,ORYSAT herbicidal rating (rice tolerance),[7]; Rate 0.500 kg/ha,4.0
same,ORYSAT,[7]; Rate 0.031 kg/ha,1.0
same,ORYSAT,[7]; Rate 0.063 kg/ha,2.7
same,ORYSAT,[7]; Rate 0.125 kg/ha,3.0
same,ORYSAT,[7]; Rate 0.250 kg/ha,3.8
same,"Herbicidal effect rating, ABUTH",[8]; 0.031 kg/ha,7.3
same,"Herbicidal effect rating, ABUTH",[8]; 0.063 kg/ha,8.1
same,"Herbicidal effect rating, ABUTH",[8]; 0.125 kg/ha,8.8
same,"Herbicidal effect rating, ABUTH",[8]; 0.250 kg/ha,8.9
